Source: ChEMBL document CHEMBL4715740, “Synthesis, anti-inflammatory, analgesic, COX-1/2 inhibitory activities and molecular docking studies of substituted 2-mercapto-4(3H)-quinazolinones” (Eur J Med Chem, 2016)

Legend:
[1] = tested on: Rattus norvegicus; assay: Antiinflammatory activity against Sprague-Dawley rat assessed as reduction in carragenan-induced paw edema administered ip and measured after 2 hrs by plethysmometry; type: functional
[2] = tested on: Mus musculus; assay: Analgesic activity in Swiss albino mouse administered ip and measured after 60 mins by hot plate method; type: functional; details: 1 h
[3] = target: T1, Prostaglandin G/H synthase 1 (Ovis aries, UniProt P05979); assay: Inhibition of ovine COX1 assessed as reduction in PGF2alpha production using arachidonic acid as substrate preincubated with enzyme for 5 mins followed by substrate addition and measured after 2 mins by colorimetric analysis
T1 sequence (P05979 whole entry): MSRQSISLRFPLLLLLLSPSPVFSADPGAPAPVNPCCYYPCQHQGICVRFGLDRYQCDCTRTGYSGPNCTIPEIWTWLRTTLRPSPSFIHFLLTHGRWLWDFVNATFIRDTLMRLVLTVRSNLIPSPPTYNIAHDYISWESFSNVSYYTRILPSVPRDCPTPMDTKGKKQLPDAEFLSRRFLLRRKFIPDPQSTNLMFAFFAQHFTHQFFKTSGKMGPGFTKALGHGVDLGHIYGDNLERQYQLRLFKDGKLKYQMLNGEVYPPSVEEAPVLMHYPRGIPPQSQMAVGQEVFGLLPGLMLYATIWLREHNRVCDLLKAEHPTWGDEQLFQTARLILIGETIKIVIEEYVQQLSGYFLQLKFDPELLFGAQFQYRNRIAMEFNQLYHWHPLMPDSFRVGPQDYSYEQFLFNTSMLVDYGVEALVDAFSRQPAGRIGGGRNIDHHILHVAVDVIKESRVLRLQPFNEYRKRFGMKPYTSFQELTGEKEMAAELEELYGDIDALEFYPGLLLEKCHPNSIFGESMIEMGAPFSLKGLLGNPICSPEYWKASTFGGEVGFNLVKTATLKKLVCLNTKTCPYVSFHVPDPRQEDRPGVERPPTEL

CC(C)c1ccc(CSc2nc3ccccc3c(=O)n2CCc2ccccn2)cc1
ED50 [1]: > 200 mg/kg
ED50 [2]: > 200 mg/kg

COc1ccc(Nc2nnc(CSc3nc4ccccc4c(=O)n3CCc3ccccn3)s2)cc1
ED50 [1]: > 200 mg/kg
ED50 [2]: > 200 mg/kg

CCC(=O)NNC(=O)CSc1nc2ccccc2c(=O)n1CCc1ccccn1
ED50 [1]: 83.3 mg/kg
IC50 [3]: > 100 µM
ED50 [2]: 95.5 mg/kg

CSc1nc2ccccc2c(=O)n1CCc1ccccn1
ED50 [1]: > 200 mg/kg
ED50 [2]: > 200 mg/kg

O=C(CSc1nc2ccccc2c(=O)n1CCc1ccccn1)NNC(=S)NCc1ccccc1
ED50 [1]: > 200 mg/kg
ED50 [2]: 47.4 mg/kg

NNC(=O)CSc1nc2ccccc2c(=O)n1CCc1ccccn1
IC50 [3]: > 100 µM

Cc1ccc(-c2cc(C(F)(F)F)nn2-c2ccc(S(N)(=O)=O)cc2)cc1 [CELECOXIB]
ED50 [1]: 84.3 mg/kg
ED50 [2]: 71.6 mg/kg

O=C(CSc1nc2ccccc2c(=O)n1CCc1ccccn1)NNC(=S)Nc1ccccc1
ED50 [1]: > 200 mg/kg
ED50 [2]: > 200 mg/kg

O=c1c2ccccc2nc(SCc2nnc(NCc3ccccc3)s2)n1CCc1ccccn1
ED50 [1]: > 200 mg/kg
ED50 [2]: > 200 mg/kg

O=c1c2ccccc2nc(SCc2nnc(S)n2Cc2ccccc2)n1CCc1ccccn1
ED50 [1]: > 200 mg/kg
ED50 [2]: > 200 mg/kg

O=c1c2ccccc2nc(SCCN2CCOCC2)n1CCc1ccccn1
ED50 [1]: > 200 mg/kg
ED50 [2]: > 200 mg/kg

CCn1c(S)nnc1CSc1nc2ccccc2c(=O)n1CCc1ccccn1
ED50 [1]: 91.9 mg/kg
IC50 [3]: > 100 µM
ED50 [2]: 71.4 mg/kg

CCSc1nc2ccccc2c(=O)n1CCc1ccccn1
ED50 [1]: 74.5 mg/kg
IC50 [3]: > 100 µM
ED50 [2]: 105 mg/kg

COc1ccc(C(=O)NNC(=O)CSc2nc3ccccc3c(=O)n2CCc2ccccn2)cc1
ED50 [1]: 101 mg/kg
IC50 [3]: > 100 µM
ED50 [2]: 101 mg/kg

O=C(CSc1nc2ccccc2c(=O)n1CCc1ccccn1)NNC(=O)c1ccccc1
ED50 [1]: 90.1 mg/kg
IC50 [3]: > 100 µM
ED50 [2]: 86.1 mg/kg

CCOC(=O)CSc1nc2ccccc2c(=O)n1CCc1ccccn1
ED50 [1]: > 200 mg/kg
ED50 [2]: > 200 mg/kg

O=C(CSc1nc2ccccc2c(=O)n1CCc1ccccn1)NNC(=O)c1ccc(Cl)cc1
ED50 [1]: > 200 mg/kg
ED50 [2]: > 200 mg/kg

O=c1c2ccccc2nc(SCc2nnc(Nc3ccccc3)s2)n1CCc1ccccn1
ED50 [1]: > 200 mg/kg
ED50 [2]: > 200 mg/kg

N#CCSc1nc2ccccc2c(=O)n1CCc1ccccn1
ED50 [1]: > 200 mg/kg
ED50 [2]: > 200 mg/kg

O=c1c2ccccc2nc(SCc2ccccc2)n1CCc1ccccn1
ED50 [1]: > 200 mg/kg
ED50 [2]: > 200 mg/kg

O=c1c2ccccc2nc(SCc2nnc(S)n2-c2ccccc2)n1CCc1ccccn1
ED50 [1]: > 200 mg/kg
ED50 [2]: > 200 mg/kg

O=c1c2ccccc2nc(S)n1CCc1ccccn1
IC50 [3]: > 100 µM

CCNC(=S)NNC(=O)CSc1nc2ccccc2c(=O)n1CCc1ccccn1
ED50 [1]: 70.5 mg/kg
IC50 [3]: > 100 µM
ED50 [2]: 33.3 mg/kg

O=C1c2ccccc2C(=O)N1CCCSc1nc2ccccc2c(=O)n1CCc1ccccn1
ED50 [1]: > 200 mg/kg
ED50 [2]: > 200 mg/kg

O=c1c2ccccc2nc(SCc2ccc(Cl)cc2)n1CCc1ccccn1
ED50 [1]: 65.7 mg/kg
IC50 [3]: > 100 µM
ED50 [2]: 99.2 mg/kg

COc1ccc(NC(=S)NNC(=O)CSc2nc3ccccc3c(=O)n2CCc2ccccn2)cc1
ED50 [1]: > 200 mg/kg
ED50 [2]: > 200 mg/kg

CCNc1nnc(CSc2nc3ccccc3c(=O)n2CCc2ccccn2)s1
ED50 [1]: > 200 mg/kg
ED50 [2]: > 200 mg/kg
